In experiment [1] the test system is L1210. The experiment can be described thus: Inhibitory effect against L1210 leukemia in tissue culture. It counts as functional. The following applies: Mus musculus, read-out: ID50 (the source's name).
In the next experiment the test system is Nucleic Acid. Nature of the experiment: Concentration at which the fluorescence of an ethidium-DNA complex was reduced by 50%. It counts as nucleic-acid assay.
Experiment [2] concerns HCT-8. The experiment can be described thus: Inhibitory effect against HCT8 Human colon adenocarcinoma. It counts as functional. The conditions noted are these: read-out: ID50 (the source's name).
For experiment [3], the system named is L1210. Nature of the experiment: Inhibitory effect against L1210 leukemia in tissue culture; Inactive. The conditions noted are these: Mus musculus. It counts as functional, cell-based.
Experiment [4] deals with HCT-8. The experiment can be described thus: Inhibitory effect against HCT8 Human colon adenocarcinoma; inactive. It counts as functional, cell-based.

pIC50: −log10 of the molar value. Active and inactive are the calls of the source. The rule behind the calls is not given here.

In the case of `Cc1c2cnccc2c(C)c2c1c1ccccc1n2C`, the pIC50 with L1210 [1] was 6.37. Besides, in the experiment on Nucleic Acid, the C50 is 454 nM.

As to `Cc1c2cnccc2c(C)c2c1c1ccccc1n2CCN1CCCCC1`, the results for the pIC50 in the experiment with HCT-8 [2] and in the experiment with L1210 [1] were 7.09 and 6.77, respectively. For the same compound, the C50 with Nucleic Acid was 122 nM.

As for `CCN(CC)CCn1c2ccccc2c2c(C)c3cnccc3c(C)c21`, the results for the pIC50 with HCT-8 [2] and in the experiment on L1210 [1] were 7.10 and 6.72, respectively. This compound yielded a C50 in the experiment on Nucleic Acid of 106 nM.

In the case of `CCN(CC)C(=O)Cn1c2ccccc2c2c(C)c3cnccc3c(C)c21`, in the experiment with L1210 [3], the ID50 result is “inactive”.

Turning to `Cc1c2ccncc2c(C)c2c1[nH]c1ccccc12` [ELLIPTECINE], the pIC50 is 6.59 in the experiment on HCT-8 [2] and 7.00 in the experiment on L1210 [1]. Further, the C50 in the experiment with Nucleic Acid is 1040 nM.

`CCN(CC)CC[n+]1ccc2c(C)c3[nH]c4ccccc4c3c(C)c2c1`: the pIC50 was 6.30 in the experiment on HCT-8 [2] and 7.39 in the experiment with L1210 [1]. In the experiment on Nucleic Acid, this compound returned a C50 of 159 nM.

Turning to `Cc1c2cnccc2c(C)c2c1c1ccccc1n2CCN1CCOCC1`, the results for the pIC50 with HCT-8 [2] and with L1210 [1] were 7.00 and 6.49, respectively. This compound also gave a C50 in the experiment with Nucleic Acid of 440 nM.

`Cc1c2cnccc2c(C)c2c1c1ccccc1n2CCCN(C)C`: the values for the pIC50 in the experiment with HCT-8 [2] and in the experiment on L1210 [1] were 6.41 and 6.96, respectively.

Take `Cc1c2cc[n+](C)cc2c(C)c2c1[nH]c1ccccc12`: in the experiment with HCT-8 [4], the ID50 result was “inactive”. Also, the pIC50 in the experiment with L1210 [1] was 6.22.

The record behind these values is ChEMBL document CHEMBL1123324, “Basically substituted ellipticine analogues as potential antitumor agents” (1986).
